In ChEMBL document CHEMBL4043145, “Pyridine-pyrimidine amides that prevent HGF-induced epithelial scattering by two distinct mechanisms” (Bioorg Med Chem Lett, 2017):

Experiments:
[1] = test system: A2780; assay: Induction of apoptosis in human A2780 cells assessed as early apoptotic cells at 300 nM by 7-AAD/Annexin staining-based assay (reference value: 1.7 to 2.1%); type: functional
[2] = test system: A2780; assay: Induction of apoptosis in human A2780 cells assessed as late apoptotic cells at 300 nM by 7-AAD/Annexin staining-based assay (reference value: 1.2 to 2.2%); type: functional
[3] = test system: A2780; assay: Induction of apoptosis in human A2780 cells assessed as viable cells at 100 nM by 7-AAD/Annexin staining-based assay (reference value: 95 to 96.7%); type: functional; details: read-out: Activity
[4] = test system: A2780; assay: Induction of apoptosis in human A2780 cells assessed as late apoptotic cells at 100 nM by 7-AAD/Annexin staining-based assay (reference value: 1.2 to 2.2%); type: functional
[5] = test system: MCF7; assay: Induction of apoptosis in human MCF7 cells assessed as early apoptotic cells at 1000 nM by 7-AAD/Annexin staining-based assay (reference value: 2 to 2.7%); type: functional
[6] = test system: MCF7; assay: Induction of apoptosis in human MCF7 cells assessed as nuclear debris at 1000 nM by 7-AAD/Annexin staining-based assay (reference value: 0.2 to 3%); type: functional
[7] = test system: MCF7; assay: Induction of apoptosis in human MCF7 cells assessed as viable cells at 300 nM by 7-AAD/Annexin staining-based assay (reference value: 92.6 to 96.8%); type: functional; details: read-out: Activity
[8] = test system: MCF7; assay: Induction of apoptosis in human MCF7 cells assessed as nuclear debris at 300 nM by 7-AAD/Annexin staining-based assay (reference value: 0.2 to 3%); type: functional
[9] = test system: MCF7; assay: Induction of apoptosis in human MCF7 cells assessed as viable cells at 100 nM by 7-AAD/Annexin staining-based assay (reference value: 92.6 to 96.8%); type: functional; details: read-out: Activity
[10] = test system: MCF7; assay: Induction of apoptosis in human MCF7 cells assessed as nuclear debris at 100 nM by 7-AAD/Annexin staining-based assay (reference value: 0.2 to 3%); type: functional
[11] = test system: PC-3; assay: Induction of apoptosis in human p53-null PC3 cells assessed as viable cells at 1000 nM by 7-AAD/Annexin staining-based assay (reference value: 96.5 to 98.6%); type: functional; details: read-out: Activity
[12] = test system: PC-3; assay: Induction of apoptosis in human p53-null PC3 cells assessed as early apoptotic cells at 1000 nM by 7-AAD/Annexin staining-based assay (reference value: 0.6 to 1.4%); type: functional
[13] = test system: PC-3; assay: Induction of apoptosis in human p53-null PC3 cells assessed as nuclear debris at 1000 nM by 7-AAD/Annexin staining-based assay (reference value: 0.1 to 0.5%); type: functional
[14] = test system: PC-3; assay: Induction of apoptosis in human p53-null PC3 cells assessed as early apoptotic cells at 300 nM by 7-AAD/Annexin staining-based assay (reference value: 0.6 to 1.4%); type: functional
[15] = test system: PC-3; assay: Induction of apoptosis in human p53-null PC3 cells assessed as viable cells at 100 nM by 7-AAD/Annexin staining-based assay (reference value: 96.5 to 98.6%); type: functional; details: read-out: Activity
[16] = test system: PC-3; assay: Induction of apoptosis in human p53-null PC3 cells assessed as early apoptotic cells at 100 nM by 7-AAD/Annexin staining-based assay (reference value: 0.6 to 1.4%); type: functional
[17] = test system: MFE-280; assay: Induction of apoptosis in human MFE280 cells assessed as viable cells at 300 nM by 7-AAD/Annexin staining-based assay (reference value: 84.9 to 87.7%); type: functional; details: read-out: Activity
[18] = test system: MFE-280; assay: Induction of apoptosis in human MFE280 cells assessed as viable cells at 100 nM by 7-AAD/Annexin staining-based assay (reference value: 84.9 to 87.7%); type: functional; details: read-out: Activity
[19] = test system: MFE-296; assay: Induction of apoptosis in human MFE296 cells assessed as viable cells at 1000 nM by 7-AAD/Annexin staining-based assay (reference value: 90.9 to 94.4%); type: functional; details: read-out: Activity
[20] = test system: MFE-296; assay: Induction of apoptosis in human MFE296 cells assessed as early apoptotic cells at 1000 nM by 7-AAD/Annexin staining-based assay (reference value: 1.5 to 2.1%); type: functional
[21] = test system: MFE-296; assay: Induction of apoptosis in human MFE296 cells assessed as viable cells at 300 nM by 7-AAD/Annexin staining-based assay (reference value: 90.9 to 94.4%); type: functional; details: read-out: Activity
[22] = test system: MFE-296; assay: Induction of apoptosis in human MFE296 cells assessed as late apoptotic cells at 300 nM by 7-AAD/Annexin staining-based assay (reference value: 3.6 to 6.6%); type: functional
[23] = test system: MFE-296; assay: Induction of apoptosis in human MFE296 cells assessed as early apoptotic cells at 100 nM by 7-AAD/Annexin staining-based assay (reference value: 1.5 to 2.1%); type: functional
[24] = test system: T47D; assay: Induction of apoptosis in human T47D cells assessed as late apoptotic cells at 1000 nM by 7-AAD/Annexin staining-based assay (reference value: 3 to 13.4%); type: functional
[25] = test system: T47D; assay: Induction of apoptosis in human T47D cells assessed as nuclear debris at 1000 nM by 7-AAD/Annexin staining-based assay (reference value: 0.2 to 7.7%); type: functional
[26] = test system: T47D; assay: Induction of apoptosis in human T47D cells assessed as viable cells at 100 nM by 7-AAD/Annexin staining-based assay (reference value: 74.5 to 94.5%); type: functional; details: read-out: Activity
[27] = test system: T47D; assay: Induction of apoptosis in human T47D cells assessed as early apoptotic cells at 100 nM by 7-AAD/Annexin staining-based assay (reference value: 1.6 to 4.3%); type: functional
[28] = test system: T47D; assay: Induction of apoptosis in human T47D cells assessed as late apoptotic cells at 100 nM by 7-AAD/Annexin staining-based assay (reference value: 3 to 13.4%); type: functional
[29] = test system: T47D; assay: Induction of apoptosis in human T47D cells assessed as nuclear debris at 100 nM by 7-AAD/Annexin staining-based assay (reference value: 0.2 to 7.7%); type: functional
[30] = test system: A2780; assay: Cell cycle arrest in human A2780 cells assessed as accumulation at S phase at 300 nM (reference value: 21.16 to 22.81%); type: functional
[31] = test system: A2780; assay: Cell cycle arrest in human A2780 cells assessed as accumulation at G2/M phase at 1000 nM (reference value: 19.42 to 20.43%); type: functional
[32] = test system: MFE-296; assay: Cell cycle arrest in human MFE296 cells assessed as accumulation at S phase at 1000 nM (reference value: 16.96 to 19.19%); type: functional
[33] = test system: MFE-296; assay: Cell cycle arrest in human MFE296 cells assessed as accumulation at G2/M phase at 300 nM (reference value: 15.71 to 17.04%); type: functional
[34] = test system: T47D; assay: Cell cycle arrest in human T47D cells assessed as accumulation at S phase at 100 nM (reference value: 19.89 to 24.55%); type: functional
[35] = Inhibition of bovine brain tubulin polymerization; set-up: species or system Bos taurus
[36] = test system: MFE-280; assay: Induction of apoptosis in human MFE280 cells assessed as early apoptotic cells at 100 nM by 7-AAD/Annexin staining-based assay (reference value: 5.1 to 6.2%); type: functional

Structure (SMILES)	Activity [1]	Activity [2]	viability at 0.1 µM [3]	Activity [4]	Activity [5]	Activity [6]	viability at 0.3 µM [7]	Activity [8]	viability at 0.1 µM [9]	Activity [10]	viability at 1 µM [11]	Activity [12]	Activity [13]	Activity [14]	viability at 0.1 µM [15]	Activity [16]	viability at 0.3 µM [17]	viability at 0.1 µM [18]	viability at 1 µM [19]	Activity [20]	also measured
CN[C@@H]1C[C@H]2O[C@@](C)([C@@H]1OC)n1c3ccccc3c3c4c(c5c6ccccc6n2c5c31)C(=O)NC4 [STAUROSPORINE]	3.4%	8.5%	90.5%	3.7%	3.5%	9.6%	83.6%	1.1%	93%	0.6%	97.3%	1.3%	0.2%	1%	98%	1.2%	57%	51.1%	20.2%	4.4%	viability at 0.3 µM [21]: 57.2%; Activity [22]: 24.4%; Activity [23]: 7.5%; Activity [24]: 4.8%; Activity [25]: 0.6%; viability at 0.1 µM [26]: 95%; Activity [27]: 2.5%; Activity [28]: 2.4%; Activity [29]: 0.1%
O=C(Nc1ccc(-c2cccc(Cl)c2)cn1)c1cncnc1	3.5%	3.5%	92.7%	3.2%	3.3%	0.3%	92.4%	0.5%	94.4%	0.4%	97%	1.3%	0.5%	0.8%	98.9%	0.6%	84.4%	86.2%	84.3%	3.7%	Activity [30]: 22.35%; Activity [31]: 77.58%; Activity [32]: 18.15%; Activity [33]: 55.89%; Activity [34]: 22.91%; IC50 [35]: 1.45 µM; Activity [36]: 4.9%; viability at 0.3 µM [21]: 86.5%; Activity [22]: 8.2%; Activity [23]: 2.1%; Activity [24]: 4.5%; Activity [25]: 0.6%; viability at 0.1 µM [26]: 92.4%; Activity [27]: 5.1%; Activity [28]: 2.3%; Activity [29]: 0.2%
